According to US6537948B1, “Uracil compounds and use thereof” (Sumitomo Chemical Company, Limited, priority 2000, dated 2003):

How the values were obtained:
Type in all cases: in vivo
[1] = tested on: velvetleaf (Abutilon theophrasti); test: Test Example 2: soil surface treatment of field; conditions: soil surface spray, dosage 500 g/ha, 19 days after application
Description: (§1) A cylindrical plastic pot having a diameter of 10 cm and a depth of 10 cm was filled with soil and then seeded with ivyleaf morningglory (Ipomoea hederacea) and velvetleaf (Abutilon theophrasti). Then, each of the compounds 1-2, 1-42, 1-48, 2-2, 2-7, 2-42, 2-45, 3-2, 3-12, 4-7, 4-85, 5-12-R, 5-12-S, 5-17, 6-2, 7-2, 7-6, 7-8, 7-12, 7-48, 7-50, 7-84, 7-118, 7-119, 7-125, 9-7, 9-27 and 9-45 was formulated into an emulsifiable concentrate according to Formulation Example 2 and then diluted to the prescribed amount with water, and the dilution was uniformly sprayed over the surface of the soil with a sprayer at a rate of 1000 liters per hectare. After the application, the test plants were grown in the greenhouse for 19 days, and the herbicidal activity was examined.

[2] = tested on: ivyleaf morningglory (Ipomoea hederacea); test: Test Example 2: soil surface treatment of field; conditions: soil surface spray, dosage 500 g/ha, 19 days after application
Description: as §1

[3] = tested on: velvetleaf (Abutilon theophrasti); test: Test Example 1: foliar treatment of field; conditions: foliar spray, dosage 125 g/ha, 16 days after application
Protocol: (§2) A cylindrical plastic pot having a diameter of 10 cm and a depth of 10 cm was filled with soil and then seeded with ivyleaf morningglory (Ipomoea hederacea) and velvetleaf (Abutilon theophrasti). These test plants were grown in a greenhouse for 10 days. Then, each of compounds 1-2, 1-42, 1-45, 1-48, 2-2, 2-7, 2-42, 2-45, 3-2, 3-12, 4-7, 4-85, 5-12-R, 5-12-S, 5-17, 6-2, 7-2, 7-6, 7-8, 7-12, 7-48, 7-50, 7-84, 7-118, 7-119, 7-125, 9-7, 9-27 and 9-45 was formulated into an emulsifiable concentrate according to Formulation Example 2 and then diluted to the prescribed amount with water containing a spreading agent and the dilution was uniformly sprayed over the foliage of the test plants with a sprayer at a rate of 1000 liters per hectare. After the application, the test plants were grown in the greenhouse for 16 days, and the herbicidal activity was determined.

[4] = tested on: ivyleaf morningglory (Ipomoea hederacea); test: Test Example 1: foliar treatment of field; conditions: foliar spray, dosage 125 g/ha, 16 days after application
Protocol: as §2

Cn1c(C(F)(F)F)cc(=O)n(-c2cc(Oc3cccnc3OCC(=O)O)c(Cl)cc2F)c1=O [Compound 7-6, 3-{2-chloro-4-fluoro-5-[3-methyl-2,6-dioxo-4-(trifluoromethyl)-1,2,3,6-tetrahydropyrimidin-1-yl]phenoxy}-2-carboxymethoxypyridine]
completely controlled: growth of velvetleaf (herbicidal activity) [1] | growth of ivyleaf morningglory (herbicidal activity) [2] | growth of velvetleaf (herbicidal activity) [3] | growth of ivyleaf morningglory (herbicidal activity) [4]

CCOC(=O)COc1ncccc1Oc1cc(-n2c(=O)cc(C(F)(F)F)n(C)c2=O)c(F)cc1Cl [Compound 7-8, 3-{2-chloro-4-fluoro-5-[3-methyl-2,6-dioxo-4-(trifluoromethyl)-1,2,3,6-tetrahydropyrimidin-1-yl]phenoxy}-2-(ethoxycarbonyl)methoxypyridine]
completely controlled: growth of velvetleaf (herbicidal activity) [1] | growth of ivyleaf morningglory (herbicidal activity) [2] | growth of velvetleaf (herbicidal activity) [3] | growth of ivyleaf morningglory (herbicidal activity) [4]

COC(=O)C(C)Oc1ccc(Oc2cc(-n3c(=O)cc(C(F)(F)F)n(C)c3=O)c(F)cc2Cl)cn1 (stereo not shown) [Compound 7-12, 5-{2-chloro-4-fluoro-5-[3-methyl-2,6-dioxo-4-(trifluoromethyl)-1,2,3,6-tetrahydropyrimidin-1-yl]phenoxy}-2-{1-(methoxycarbonyl)ethoxy}pyridine]
completely controlled: growth of velvetleaf (herbicidal activity) [1] | growth of ivyleaf morningglory (herbicidal activity) [2] | growth of velvetleaf (herbicidal activity) [3] | growth of ivyleaf morningglory (herbicidal activity) [4]

CCCOC(=O)COc1ncccc1Oc1cc(-n2c(=O)cc(C(F)(F)F)n(C)c2=O)c(F)cc1Cl [Compound 7-48, 3-{2-chloro-4-fluoro-5-[3-methyl-2,6-dioxo-4-(trifluoromethyl)-1,2,3,6-tetrahydropyrimidin-1-yl]phenoxy}-2-(n-propoxycarbonyl)methoxypyridine]
completely controlled: growth of velvetleaf (herbicidal activity) [1] | growth of ivyleaf morningglory (herbicidal activity) [2] | growth of velvetleaf (herbicidal activity) [3] | growth of ivyleaf morningglory (herbicidal activity) [4]

CCCCCOC(=O)COc1ncccc1Oc1cc(-n2c(=O)cc(C(F)(F)F)n(C)c2=O)c(F)cc1Cl [Compound 7-50, 3-{2-chloro-4-fluoro-5-[3-methyl-2,6-dioxo-4-(trifluoromethyl)-1,2,3,6-tetrahydropyrimidin-1-yl]phenoxy}-2-(n-pentyloxycarbonyl)methoxypyridine]
completely controlled: growth of velvetleaf (herbicidal activity) [1] | growth of ivyleaf morningglory (herbicidal activity) [2] | growth of velvetleaf (herbicidal activity) [3] | growth of ivyleaf morningglory (herbicidal activity) [4]

CONC(=O)COc1ncccc1Oc1cc(-n2c(=O)cc(C(F)(F)F)n(C)c2=O)c(F)cc1Cl [Compound 7-84, 3-{2-chloro-4-fluoro-5-[3-methyl-2,6-dioxo-4-(trifluoromethyl)-1,2,3,6-tetrahydropyrimidin-1-yl]phenoxy}-2-[(methoxyaminocarbonyl)methoxy]pyridine]
completely controlled: growth of velvetleaf (herbicidal activity) [1] | growth of ivyleaf morningglory (herbicidal activity) [2] | growth of velvetleaf (herbicidal activity) [3] | growth of ivyleaf morningglory (herbicidal activity) [4]

CC(C)=NOC(=O)COc1ncccc1Oc1cc(-n2c(=O)cc(C(F)(F)F)n(C)c2=O)c(F)cc1Cl [Compound 7-118, 3-{2-chloro-4-fluoro-5-[3-methyl-2,6-dioxo-4-(trifluoromethyl)-1,2,3,6-tetrahydropyrimidin-1-yl]phenoxy}-2-isopropylidenaminoxycarbonylmethoxypyridine]
completely controlled: growth of velvetleaf (herbicidal activity) [1] | growth of ivyleaf morningglory (herbicidal activity) [2] | growth of velvetleaf (herbicidal activity) [3] | growth of ivyleaf morningglory (herbicidal activity) [4]
